# T1: FcεRIα (Homo sapiens, UniProt P12319)
# T1 sequence (P12319 26-257): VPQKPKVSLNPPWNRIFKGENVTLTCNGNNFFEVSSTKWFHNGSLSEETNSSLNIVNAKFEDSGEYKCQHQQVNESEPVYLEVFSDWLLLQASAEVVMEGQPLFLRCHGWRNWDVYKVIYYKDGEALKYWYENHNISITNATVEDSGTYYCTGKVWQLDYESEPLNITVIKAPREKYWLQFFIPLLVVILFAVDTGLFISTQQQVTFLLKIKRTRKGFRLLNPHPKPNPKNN
# Experiments:
# [1] = molecular target: mutant hormone / mutant receptor (hGH/hGHbp) (Homo sapiens, UniProt P01241+P10912, T201G/W122G); details: at a concentration of 100 μM; cited from earlier work
# [2] = molecular target: LFA-1/ICAM-1 interaction (Homo sapiens, UniProt P05107+P20701); details: solid-phase binding assay stated for LFA703; cited from earlier work
# [3] = test system: inflammatory response; details: mouse model of acute inflammation; cited from earlier work
# [4] = molecular target: transthyretin (TTR) (Homo sapiens, UniProt P02766); details: in vitro; cited from earlier work
# [5] = molecular target: T2, 488-labeled 367C IgE-Fc bound to FcεRIα (Homo sapiens, UniProt P01854+P12319, K248C); experiment: fluorescence assay in competitive inhibitor format; type: binding
# T2 construct: starts at amino acid 1 and ends at amino acid 176 of said FcεRIα, using the numbering −25 to 232; made in house; host or cells: IgE-Fc: insect cells (Trichoplusia ni)
# Procedure: Fluorescence Measurement. Samples were monitored by fluorescence using a Synergy 4 Fluorometer (BioTek) in black 96-well Costar fluorescence plates (Corning). Samples were prepared manually by mixing Alexa-488-labelled 367C IgE-Fc in 0.1% Tween-20 and 100 nM BSA, with buffered 50 mM Tris and 50 mM NaCl, pH 8. Fluorescence was measured using an excitation wavelength of 488 nm and emission was monitored at 520 nm. The read-type for typical measurements was Endpoint. All measurements were recorded in duplicate.
# [6] = molecular target: T1, FcεRIα; details: natural IgE-receptor interaction; read-out: affinity of the natural receptor interaction; cited from earlier work
Molecule,inhibition of TTR amyloid fibril formation [4],also measured
Clc1ccc2nc(C(Cl)(Cl)Cl)[nH]c2c1 [5-Chloro-2-trichloromethyl benzimidazole],–,increase in binding affinity of the mutant hormone to the mutant receptor [1]: more than 1000 fold
CC[C@H](C)C(=O)O[C@H]1C[C@@H](C)C=C2C=C[C@H](C)[C@H](CC[C@H]3C[C@@H](O)CC(=O)N3Cc3ccc4c(CO)c(OC)ccc4c3)[C@H]21 [LFA703],–,IC50 [2]: 0.2 µM; inflammatory response [3]: suppress the inflammatory response
"O=C(O)c1cccc2c1Oc1c(C(=O)O)cccc1N2c1cccc(C(F)(F)F)c1 [PHENOX, N-(meta-trifluoromethylphenyl)-phenoxazine-4,6-dicarboxylic acid]",potent inhibitors,–
O=C(O)Cc1ccccc1Nc1c(Cl)cccc1Cl [diclofenac],strongly inhibited,–
O=C(O)c1ccccc1Nc1cccc(C(F)(F)F)c1 [flufenamic acid],potently inhibit,–
CC(C(=O)O)c1ccc(-c2ccccc2)c(F)c1 (stereo not drawn) [flurbiprofen],strongly inhibited,–
"O=C(O)c1ccccc1Nc1ccccc1C(F)(F)F [o-FLU, ortho-trifluoromethylphenyl anthranilic acid]",potent inhibitors,–
Oc1ccc(C=Cc2cc(O)cc(O)c2)cc1 [resveratrol],strongly inhibited,–
"unlabeled IgE-Fc: unlabeled wild type human IgE-Fc (Cε3-Cε4) used as competitor (protein, listed as Homo sapiens, PEPTIDE (1)..(223) Wildtype IgE-Fc (C3-C4)) ADPCADSNPRGVSAYLSRPSPFDLFIRKSPTITCLVVDLAPSKGTVNLTWSRASGKPVNHSTRKEEKQRNGTLTVTSTLPVGTRDWIEGETYQCRVTHPHLPRALMRSTTKTSGPRAAPEVYAFATPEWPGSRDKRTLACLIQNFMPEDISVQWLHNEVQLPDARHSTTQPRKTKGSGFFVFSRLEVTRAEWEQKDEFICRAVHEAASPSQTVQRAVSVNPGK",–,direct effect on fluorescence of the dye-labeled IgE-Fc ([5]; control in the absence of FcεRIα): no significant effect; fluorescence recovery / competition of receptor binding ([5]; in the presence of FcεRIα): completely competed; Kd [6]: ~0.001 µM
